Test results: patent US10765114B2, “4-amino-6-(pyridyl and 2-substitutedphenyl)-picolinates and 6-amino-2-(pyridyl and 2-substitutedphenyl)-pyrimidine-4-carboxylates and their use as herbicides” (Dow AgroSciences LLC, priority 2013, dated 2020)

Test system: not given
Experiment: not given
Conditions: not given

melting point [°C]	SMILES
137	COC(=O)c1nc(-c2ccc(C(F)(F)F)nc2)c(F)c(N)c1Cl [Compound 59, methyl 4-amino-5-chloro-3-fluoro-6′-(trifluoromethyl)-[2,3′-bipyridine]-6-carboxylate]

Test system: Key Grass and Sedge Weeds as well as Grass Crops
Experiment: Post-Emergent Test II (Table 6)
Assay type: in vivo
Conditions: post-emergence, 336 h, CYPSS, 70 g ai/ha, 14 days after application, read-out: Visual Growth Reduction (%) 14 Days After Application CYPSS
Outline: (§1)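 Post-emergence greenhouse spray, 1st-2nd true leaf stage; track sprayer, 187 L/ha; acetone/DMSO stock diluted in aqueous acetone/IPA/DMSO with Atplus 411F and Triton X-155; rates 1× to 1/16×; subirrigated; visual injury 0 (none) to 100% (complete kill) at 14 days.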

SMILES	pest or weed control at 70 g/ha [%]
COC(=O)c1nc(-c2ccc(C(F)(F)F)nc2)c(F)c(N)c1Cl [Compound 59, methyl 4-amino-5-chloro-3-fluoro-6′-(trifluoromethyl)-[2,3′-bipyridine]-6-carboxylate]	95 to 100

Same assay, conditions: post-emergence, 336 h, CYPSS, 140 g ai/ha, 14 days after application, read-out: Visual Growth Reduction (%) 14 Days After Application CYPSS

SMILES	pest or weed control at 140 g/ha [%]
COC(=O)c1nc(-c2ccc(C(F)(F)F)nc2)c(F)c(N)c1Cl [Compound 59, methyl 4-amino-5-chloro-3-fluoro-6′-(trifluoromethyl)-[2,3′-bipyridine]-6-carboxylate]	95 to 100

Same assay, conditions: post-emergence, 336 h, DIGSA: crabgrass (Digitaria sanguinalis), 70 g ai/ha, 14 days after application, read-out: Visual Growth Reduction (%) 14 Days After Application DIGSA

SMILES	pest or weed control at 70 g/ha [%]
COC(=O)c1nc(-c2ccc(C(F)(F)F)nc2)c(F)c(N)c1Cl [Compound 59, methyl 4-amino-5-chloro-3-fluoro-6′-(trifluoromethyl)-[2,3′-bipyridine]-6-carboxylate]	75 to 84

Same assay, conditions: post-emergence, 336 h, DIGSA: crabgrass (Digitaria sanguinalis), 140 g ai/ha, 14 days after application, read-out: Visual Growth Reduction (%) 14 Days After Application DIGSA

SMILES	pest or weed control at 140 g/ha [%]
COC(=O)c1nc(-c2ccc(C(F)(F)F)nc2)c(F)c(N)c1Cl [Compound 59, methyl 4-amino-5-chloro-3-fluoro-6′-(trifluoromethyl)-[2,3′-bipyridine]-6-carboxylate]	85 to 94

Same assay, conditions: post-emergence, 336 h, ECHSS, 70 g ai/ha, 14 days after application, read-out: Visual Growth Reduction (%) 14 Days After Application ECHSS

SMILES	pest or weed control at 70 g/ha [%]
COC(=O)c1nc(-c2ccc(C(F)(F)F)nc2)c(F)c(N)c1Cl [Compound 59, methyl 4-amino-5-chloro-3-fluoro-6′-(trifluoromethyl)-[2,3′-bipyridine]-6-carboxylate]	85 to 94

Same assay, conditions: post-emergence, 336 h, ECHSS, 140 g ai/ha, 14 days after application, read-out: Visual Growth Reduction (%) 14 Days After Application ECHSS

SMILES	pest or weed control at 140 g/ha [%]
COC(=O)c1nc(-c2ccc(C(F)(F)F)nc2)c(F)c(N)c1Cl [Compound 59, methyl 4-amino-5-chloro-3-fluoro-6′-(trifluoromethyl)-[2,3′-bipyridine]-6-carboxylate]	85 to 94

Same assay, conditions: post-emergence, 336 h, ORYSS (crop), 70 g ai/ha, 14 days after application, read-out: Visual Growth Reduction (%) 14 Days After Application ORYSS

SMILES	pest or weed control at 70 g/ha [%]
COC(=O)c1nc(-c2ccc(C(F)(F)F)nc2)c(F)c(N)c1Cl [Compound 59, methyl 4-amino-5-chloro-3-fluoro-6′-(trifluoromethyl)-[2,3′-bipyridine]-6-carboxylate]	0 to 29

Same assay, conditions: post-emergence, 336 h, ORYSS (crop), 140 g ai/ha, 14 days after application, read-out: Visual Growth Reduction (%) 14 Days After Application ORYSS

SMILES	pest or weed control at 140 g/ha [%]
COC(=O)c1nc(-c2ccc(C(F)(F)F)nc2)c(F)c(N)c1Cl [Compound 59, methyl 4-amino-5-chloro-3-fluoro-6′-(trifluoromethyl)-[2,3′-bipyridine]-6-carboxylate]	0 to 29

Same assay, conditions: post-emergence, 336 h, SETFA: giant foxtail (Setaria faberi), 70 g ai/ha, 14 days after application, read-out: Visual Growth Reduction (%) 14 Days After Application SETFA

SMILES	pest or weed control at 70 g/ha [%]
COC(=O)c1nc(-c2ccc(C(F)(F)F)nc2)c(F)c(N)c1Cl [Compound 59, methyl 4-amino-5-chloro-3-fluoro-6′-(trifluoromethyl)-[2,3′-bipyridine]-6-carboxylate]	60 to 74

Same assay, conditions: post-emergence, 336 h, SETFA: giant foxtail (Setaria faberi), 140 g ai/ha, 14 days after application, read-out: Visual Growth Reduction (%) 14 Days After Application SETFA

SMILES	pest or weed control at 140 g/ha [%]
COC(=O)c1nc(-c2ccc(C(F)(F)F)nc2)c(F)c(N)c1Cl [Compound 59, methyl 4-amino-5-chloro-3-fluoro-6′-(trifluoromethyl)-[2,3′-bipyridine]-6-carboxylate]	75 to 84

Same assay, conditions: post-emergence, 336 h, SORVU: grain sorghum (Sorghum vulgare), 70 g ai/ha, 14 days after application, read-out: Visual Growth Reduction (%) 14 Days After Application SORVU

SMILES	pest or weed control at 70 g/ha [%]
COC(=O)c1nc(-c2ccc(C(F)(F)F)nc2)c(F)c(N)c1Cl [Compound 59, methyl 4-amino-5-chloro-3-fluoro-6′-(trifluoromethyl)-[2,3′-bipyridine]-6-carboxylate]	75 to 84

Same assay, conditions: post-emergence, 336 h, SORVU: grain sorghum (Sorghum vulgare), 140 g ai/ha, 14 days after application, read-out: Visual Growth Reduction (%) 14 Days After Application SORVU

SMILES	pest or weed control at 140 g/ha [%]
COC(=O)c1nc(-c2ccc(C(F)(F)F)nc2)c(F)c(N)c1Cl [Compound 59, methyl 4-amino-5-chloro-3-fluoro-6′-(trifluoromethyl)-[2,3′-bipyridine]-6-carboxylate]	85 to 94

Same assay, conditions: post-emergence, 336 h, TRZSS (crop), 70 g ai/ha, 14 days after application, read-out: Visual Growth Reduction (%) 14 Days After Application TRZSS

SMILES	pest or weed control at 70 g/ha [%]
COC(=O)c1nc(-c2ccc(C(F)(F)F)nc2)c(F)c(N)c1Cl [Compound 59, methyl 4-amino-5-chloro-3-fluoro-6′-(trifluoromethyl)-[2,3′-bipyridine]-6-carboxylate]	45 to 59

Same assay, conditions: post-emergence, 336 h, TRZSS (crop), 140 g ai/ha, 14 days after application, read-out: Visual Growth Reduction (%) 14 Days After Application TRZSS

SMILES	pest or weed control at 140 g/ha [%]
COC(=O)c1nc(-c2ccc(C(F)(F)F)nc2)c(F)c(N)c1Cl [Compound 59, methyl 4-amino-5-chloro-3-fluoro-6′-(trifluoromethyl)-[2,3′-bipyridine]-6-carboxylate]	45 to 59

Same assay, conditions: post-emergence, 336 h, ZEAMX: maize, corn (Zea mays), 70 g ai/ha, 14 days after application, read-out: Visual Growth Reduction (%) 14 Days After Application ZEAMX

SMILES	pest or weed control at 70 g/ha [%]
COC(=O)c1nc(-c2ccc(C(F)(F)F)nc2)c(F)c(N)c1Cl [Compound 59, methyl 4-amino-5-chloro-3-fluoro-6′-(trifluoromethyl)-[2,3′-bipyridine]-6-carboxylate]	75 to 84

Same assay, conditions: post-emergence, 336 h, ZEAMX: maize, corn (Zea mays), 140 g ai/ha, 14 days after application, read-out: Visual Growth Reduction (%) 14 Days After Application ZEAMX

SMILES	pest or weed control at 140 g/ha [%]
COC(=O)c1nc(-c2ccc(C(F)(F)F)nc2)c(F)c(N)c1Cl [Compound 59, methyl 4-amino-5-chloro-3-fluoro-6′-(trifluoromethyl)-[2,3′-bipyridine]-6-carboxylate]	75 to 84

Test system: Key Broadleaf Weed and Crop Species
Experiment: Post-Emergent Test II (Table 5)
Assay type: in vivo
Conditions: Abutilon theophrasti, post-emergence, 336 h, ABUTH: velvetleaf (Abutilon theophrasti), application rate 70 (kg ai/ha; footnote: g ai/ha), read-out: Visual Growth Reduction (%) 14 Days After Application ABUTH
Outline: as §1

SMILES	pest or weed control at 70 g/ha [%]
COC(=O)c1nc(-c2ccc(C(F)(F)F)nc2)c(F)c(N)c1Cl [Compound 59, methyl 4-amino-5-chloro-3-fluoro-6′-(trifluoromethyl)-[2,3′-bipyridine]-6-carboxylate]	85 to 94

Same assay, conditions: Abutilon theophrasti, post-emergence, 336 h, ABUTH: velvetleaf (Abutilon theophrasti), application rate 140 (kg ai/ha; footnote: g ai/ha), read-out: Visual Growth Reduction (%) 14 Days After Application ABUTH

SMILES	pest or weed control at 140 g/ha [%]
COC(=O)c1nc(-c2ccc(C(F)(F)F)nc2)c(F)c(N)c1Cl [Compound 59, methyl 4-amino-5-chloro-3-fluoro-6′-(trifluoromethyl)-[2,3′-bipyridine]-6-carboxylate]	95 to 100

Same assay, conditions: Amaranthus retroflexus, post-emergence, 336 h, AMARE: redroot pigweed (Amaranthus retroflexus), application rate 70 (kg ai/ha; footnote: g ai/ha), read-out: Visual Growth Reduction (%) 14 Days After Application AMARE

SMILES	pest or weed control at 70 g/ha [%]
COC(=O)c1nc(-c2ccc(C(F)(F)F)nc2)c(F)c(N)c1Cl [Compound 59, methyl 4-amino-5-chloro-3-fluoro-6′-(trifluoromethyl)-[2,3′-bipyridine]-6-carboxylate]	85 to 94

Same assay, conditions: Amaranthus retroflexus, post-emergence, 336 h, AMARE: redroot pigweed (Amaranthus retroflexus), application rate 140 (kg ai/ha; footnote: g ai/ha), read-out: Visual Growth Reduction (%) 14 Days After Application AMARE

SMILES	pest or weed control at 140 g/ha [%]
COC(=O)c1nc(-c2ccc(C(F)(F)F)nc2)c(F)c(N)c1Cl [Compound 59, methyl 4-amino-5-chloro-3-fluoro-6′-(trifluoromethyl)-[2,3′-bipyridine]-6-carboxylate]	95 to 100

Same assay, conditions: Brassica napus, post-emergence, 336 h, BRSSS: oilseed rape, canola (Brassica napus), application rate 70 (kg ai/ha; footnote: g ai/ha), read-out: Visual Growth Reduction (%) 14 Days After Application BRSSS

SMILES	pest or weed control at 70 g/ha [%]
COC(=O)c1nc(-c2ccc(C(F)(F)F)nc2)c(F)c(N)c1Cl [Compound 59, methyl 4-amino-5-chloro-3-fluoro-6′-(trifluoromethyl)-[2,3′-bipyridine]-6-carboxylate]	60 to 74

Same assay, conditions: Brassica napus, post-emergence, 336 h, BRSSS: oilseed rape, canola (Brassica napus), application rate 140 (kg ai/ha; footnote: g ai/ha), read-out: Visual Growth Reduction (%) 14 Days After Application BRSSS

SMILES	pest or weed control at 140 g/ha [%]
COC(=O)c1nc(-c2ccc(C(F)(F)F)nc2)c(F)c(N)c1Cl [Compound 59, methyl 4-amino-5-chloro-3-fluoro-6′-(trifluoromethyl)-[2,3′-bipyridine]-6-carboxylate]	60 to 74

Same assay, conditions: Chenopodium album, post-emergence, 336 h, CHEAL: lambsquarters (Chenopodium album), application rate 70 (kg ai/ha; footnote: g ai/ha), read-out: Visual Growth Reduction (%) 14 Days After Application CHEAL

SMILES	pest or weed control at 70 g/ha [%]
COC(=O)c1nc(-c2ccc(C(F)(F)F)nc2)c(F)c(N)c1Cl [Compound 59, methyl 4-amino-5-chloro-3-fluoro-6′-(trifluoromethyl)-[2,3′-bipyridine]-6-carboxylate]	95 to 100

Same assay, conditions: Chenopodium album, post-emergence, 336 h, CHEAL: lambsquarters (Chenopodium album), application rate 140 (kg ai/ha; footnote: g ai/ha), read-out: Visual Growth Reduction (%) 14 Days After Application CHEAL

SMILES	pest or weed control at 140 g/ha [%]
COC(=O)c1nc(-c2ccc(C(F)(F)F)nc2)c(F)c(N)c1Cl [Compound 59, methyl 4-amino-5-chloro-3-fluoro-6′-(trifluoromethyl)-[2,3′-bipyridine]-6-carboxylate]	95 to 100

Same assay, conditions: Euphorbia heterophylla, post-emergence, 336 h, EPHHL: wild poinsettia (Euphorbia heterophylla), application rate 70 (kg ai/ha; footnote: g ai/ha), read-out: Visual Growth Reduction (%) 14 Days After Application EPHHL

SMILES	pest or weed control at 70 g/ha [%]
COC(=O)c1nc(-c2ccc(C(F)(F)F)nc2)c(F)c(N)c1Cl [Compound 59, methyl 4-amino-5-chloro-3-fluoro-6′-(trifluoromethyl)-[2,3′-bipyridine]-6-carboxylate]	95 to 100

Same assay, conditions: Euphorbia heterophylla, post-emergence, 336 h, EPHHL: wild poinsettia (Euphorbia heterophylla), application rate 140 (kg ai/ha; footnote: g ai/ha), read-out: Visual Growth Reduction (%) 14 Days After Application EPHHL

SMILES	pest or weed control at 140 g/ha [%]
COC(=O)c1nc(-c2ccc(C(F)(F)F)nc2)c(F)c(N)c1Cl [Compound 59, methyl 4-amino-5-chloro-3-fluoro-6′-(trifluoromethyl)-[2,3′-bipyridine]-6-carboxylate]	95 to 100

Same assay, conditions: Helianthus annuus, post-emergence, 336 h, HELAN: sunflower (Helianthus annuus), application rate 70 (kg ai/ha; footnote: g ai/ha), read-out: Visual Growth Reduction (%) 14 Days After Application HELAN

SMILES	pest or weed control at 70 g/ha [%]
COC(=O)c1nc(-c2ccc(C(F)(F)F)nc2)c(F)c(N)c1Cl [Compound 59, methyl 4-amino-5-chloro-3-fluoro-6′-(trifluoromethyl)-[2,3′-bipyridine]-6-carboxylate]	95 to 100

Same assay, conditions: Helianthus annuus, post-emergence, 336 h, HELAN: sunflower (Helianthus annuus), application rate 140 (kg ai/ha; footnote: g ai/ha), read-out: Visual Growth Reduction (%) 14 Days After Application HELAN

SMILES	pest or weed control at 140 g/ha [%]
COC(=O)c1nc(-c2ccc(C(F)(F)F)nc2)c(F)c(N)c1Cl [Compound 59, methyl 4-amino-5-chloro-3-fluoro-6′-(trifluoromethyl)-[2,3′-bipyridine]-6-carboxylate]	95 to 100

Same assay, conditions: Viola tricolor, post-emergence, 336 h, VIOTR: wild pansy (Viola tricolor), application rate 70 (kg ai/ha; footnote: g ai/ha), read-out: Visual Growth Reduction (%) 14 Days After Application VIOTR

SMILES	pest or weed control at 70 g/ha [%]
COC(=O)c1nc(-c2ccc(C(F)(F)F)nc2)c(F)c(N)c1Cl [Compound 59, methyl 4-amino-5-chloro-3-fluoro-6′-(trifluoromethyl)-[2,3′-bipyridine]-6-carboxylate]	60 to 74

Same assay, conditions: Viola tricolor, post-emergence, 336 h, VIOTR: wild pansy (Viola tricolor), application rate 140 (kg ai/ha; footnote: g ai/ha), read-out: Visual Growth Reduction (%) 14 Days After Application VIOTR

SMILES	pest or weed control at 140 g/ha [%]
COC(=O)c1nc(-c2ccc(C(F)(F)F)nc2)c(F)c(N)c1Cl [Compound 59, methyl 4-amino-5-chloro-3-fluoro-6′-(trifluoromethyl)-[2,3′-bipyridine]-6-carboxylate]	75 to 84
